From PubChem BioAssay AID651992 (The Scripps Research Institute Molecular Screening Center, 2013)

System: CFBE41o- DeltaF508-CFTR YFP halide quenching kinetics
Assay: PubChem AID 651992
Conditions: at 40 µM (top of the series)

Compound: COc1ccc(/C=C/C=C2C(=O)NC(=O)NC2=O)cc1
- YFP fluorescence ratio, lower = correction: 1
